Results as given in US20090136566A1, “THERAPEUTIC TRITERPENOIDS” (Regents of the University of Minnesota, priority 2006, published 2009).
Entries after “also recorded” stand apart in the source; their conditions may differ.

Key:
P19 stem cells = test: Sulforhodamine B cell proliferation/survival assay, P19 stem cells; format: cell-based, mouse; conditions: for % Control (quantity of surviving cells as percentage of DMSO-only control): P19 stem cells, 20 μg/ml, 48 h exposure; for inhibition of P19 cell growth (in words): single dose of 20 μg/ml, 48 hours
Method: FIG. 2 is a graph showing the results of dose-response studies comparing the effectiveness of extracts from four species of birch (B. papyrifera, B. kenaica, B. neoalaskana, and B. pendula) with betulinic acid (BetA) and betulin 3-caffeate (Bet3C). Concentrations of from 2.5 to 20 μg/ml were added to cultures of P19 stem cells for 48 h, and the numbers of surviving cells measured using sulforhodamine B assays.
(§1) Cell Proliferation Measurements: Sulforhodamine B assays (Skehan, P. et al. (1990). J. Natl. Cancer Inst. 82:1107-1112.) were conducted to measure the effects of compounds and extractives of interest on the proliferation of a number of different cell lines. Cell lines used include mouse P19 and human NT2-D1 stem cells, mouse K1735-M2 melanoma cells, human LNCaP and PC-3 prostate cancer cells, and human MCF-7 breast cancer cells. Other cell lines include normal human fibroblast BJ cells, human Caov-3 ovarian cancer cells, human U87 brain glioma cells, human HL-60 acute promyelocytic leukemia cells, human MOLT-4 acute lymphoblastic leukemia cells, human U937 histiocytic lymphoma cells, human MDA-MB-231 breast cancer cells, C2BBe1 cells (a clone of the human colorectal cell line Caco-2), human K562 chronic myeloid leukemia cells, human WM32-11 primary melanoma cells with radial growth phase-like phenotype (early primary melanoma), and human WM793 melanoma cells with vertical growth phase-like phenotype. Cells were seeded at a concentration of 2.5×10^4 cells/ml in 24-well plates, and allowed to recover for 2 days prior to drug addition. Test compounds were prepared in most instances as stock solutions in dimethylsulfoxide (DMSO). Compounds were then added to multiwell plates at final concentrations of […]. Control wells received an equivalent amount of vehicle (DMSO) only. After 1-3 days of incubation, the culture medium was decanted from each plate, and the cells fixed with cold (−10° C.) absolute methanol containing 1% acetic acid for at least 30 minutes. Subsequently, the methanol was decanted, and the plate air-dried. Sulforhodamine B (0.5% in 1% acetic acid) was added to each well, and the plate incubated at 35° C. for 1 hour. Plates were rinsed with 1% acetic acid, air-dried, and the bound dye eluted with 1 ml of 10 mM Tris buffer, pH 10. The absorbance was measured in a spectrophotometer at 540 nm; the amount of dye released is proportional to the number of cells present in the dish, and is a reliable indicator of cell proliferation.
A single dose of 20 μg/ml of either extract, pure compound, or a mixture of compounds, was added to cultures of P19 stem cells, and the growth of the cells measured after 48 hours of treatment (FIG. 1).
(§2) Stock solutions of compounds and extracts were diluted to 2 mg/ml in dimethylsulfoxide (DMSO), and subsequently added to samples at a final concentration of 20 μg/ml (10 μl/ml of a 2 mg/ml stock solution); controls received an equivalent amount of DMSO only (10 μl/ml). After 48 h, samples were fixed with methanol-acetic acid, and the quantity of surviving cells determined by sulforhodamine B staining methods (discussed above). The quantity of surviving cells is expressed as a percentage of the control (DMSO-only) cultures, which was set to 100%. […] Extracts and betulinic acid induce a relatively modest increase in the numbers of dead cells present the cultures (about 10-40%).

K1735-M2 melanoma cells = test: Sulforhodamine B cell proliferation assay, K1735-M2 melanoma cells; format: cell-based, mouse; conditions: 2.5-10 mg/ml, 48 h
Method: (§3) FIG. 3 is a bar graph showing a comparison of the effects of betulin 3-caffeate on other types of malignant cancer cell lines. P19 stem cells, K1735-M2 melanoma cells and MCF-7 breast cancer cells were treated with […] betulinic acid or betulin-3-caffeate for 48 h and cell quantity determined by sulforhodamine B assays.
as §1, with “After 1-3 days of incubation, the culture medium was decanted from each plate, and the cells fixed with cold (−10° C.) absolute methanol containing 1% acetic acid for at least 30 minutes. Subsequently, the methanol was decanted, and the plate air-dried. Sulforhodamine B (0.5% in 1% acetic acid) was added to each well, and the plate incubated at 35° C. for 1 hour. Plates were rinsed with 1% acetic acid, air-dried, and the bound dye eluted with 1 ml of 10 mM Tris buffer, pH 10.” left out

[1] = system: MCF-7 breast cancer cells; test: Sulforhodamine B cell proliferation assay, MCF-7 breast cancer cells; format: cell-based, human; conditions: 2.5-10 mg/ml, 48 h
Method: as §3
as §1, with “After 1-3 days of incubation, the culture medium was decanted from each plate, and the cells fixed with cold (−10° C.) absolute methanol containing 1% acetic acid for at least 30 minutes. Subsequently, the methanol was decanted, and the plate air-dried. Sulforhodamine B (0.5% in 1% acetic acid) was added to each well, and the plate incubated at 35° C. for 1 hour. Plates were rinsed with 1% acetic acid, air-dried, and the bound dye eluted with 1 ml of 10 mM Tris buffer, pH 10.” left out

P19 cells = test: P19 cell death by propidium iodide labeling with flow cytometry; format: cell-based, mouse; conditions: 48 hours
Source text: FIG. 4 is a bar graph showing measurements of P19 cell death induced by extracts, betulinic acid (BetA) and betulin 3-caffeate (Bet3C). Because the reduction in cell numbers detected by sulforhodamine B assays could result from either an inhibition of cell proliferation or an induction of cell death (or a combination of both), propidium iodide labeling was used in conjunction with flow cytometry to detect dead and dying cells with compromised plasma membranes.
as §2

[2] = Light absorption analysis by UV-VIS spectrophotometer; format: physicochemical; conditions: for Light absorption range (λ, nm): UV-VIS spectrophotometer
Source text: Sunscreens block the cutaneous absorption of UV radiation at 280-315 nm.

Molecule	% Control (quantity of surviving cells as percentage of DMSO-only control) (P19 stem cells) [%]	inhibition of P19 cell growth (in words) (P19 stem cells)	Light absorption range (λ, nm) [2]	ε (molar extinction coefficient) ([2]; at λmax 220)	ε (molar extinction coefficient) ([2]; at λmax 245)	ε (molar extinction coefficient) ([2]; at λmax 305)	ε (molar extinction coefficient) ([2]; at λmax 325)	further results
O=C(O)CCCCCCCCCCCCCCCCCCCCC(=O)O [Sample 9, Docosandioic acid]	61.5	–	–	–	–	–	–	–
O=C(O)CCCCCCCCCCCCCCCCCCCCCO [Sample 12, 22-hydroxydocosanoic acid]	51.4	–	–	–	–	–	–	–
O=C(O)CCCCCCC/C=C\CCCCCCCCO [Sample 13, Cis-18-hydroxyoctadec-9-enoic acid]	65.9	–	–	–	–	–	–	–
C=C(C)[C@@H]1CC[C@]2(C(=O)O)CC[C@]3(C)C(CC[C@@H]4[C@@]5(C)CC[C@H](O)C(C)(C)C5CC[C@]43C)C12 (stereo partly drawn) [Sample 14, 3(β)-hydroxy-20(29)-lupaene-28-oic acid, reference compound]	1.3	–	–	–	–	–	–	inhibition of P19 cell growth (in words) (P19 stem cells; listed as betulinic acid): even more profoundly inhibited cell growth; also recorded: among the most active compounds in inhibiting cell proliferation; inhibition of M2 melanoma cell growth (in words) (K1735-M2 melanoma cells): significantly inhibited; inhibition of MCF-7 breast cancer cell growth (in words) [1]: do not appear to be as sensitive; increase in the quantity of dead cells present in the cultures (P19 cells): 10-40%
CC1(C)CC[C@]2(C(=O)O)CC[C@]3(C)C(=CC[C@@H]4[C@@]5(C)CC[C@H](O)C(C)(C)[C@@H]5CC[C@]43C)[C@@H]2C1 [Sample 15, Oleanolic acid]	22.3	less effective	–	–	–	–	–	–
C=C(C)[C@@H]1CC[C@]2(C)CC[C@]3(C)[C@H](CC[C@@H]4[C@@]5(C)CC[C@H](O)C(C)(C)[C@@H]5CC[C@]43C)[C@@H]12 [Sample 16, Lupeol]	58.9	less effective	–	–	–	–	–	–
C=C(C)[C@@H]1CC[C@]2(CO)CC[C@]3(C)C(CC[C@@H]4[C@@]5(C)CC[C@H](O)C(C)(C)C5CC[C@]43C)C12 (stereo partly drawn) [Sample 17, 3β,28-dihydroxy-lup-20(29)-ene]	14.8	less effective	–	–	–	–	–	–
C=C(C)[C@@H]1CC[C@]2(COC(=O)/C=C/c3ccc(O)c(O)c3)CC[C@]3(C)[C@H](CC[C@@H]4[C@@]5(C)CC[C@H](OC(=O)/C=C/c6ccc(O)c(O)c6)C(C)(C)[C@@H]5CC[C@]43C)[C@@H]12 [betulin-3,28-dicaffeate]	–	–	200-350 nm	13978	10018	13341	15375	–
C=C(C)[C@@H]1CC[C@]2(CO)CC[C@]3(C)[C@H](CC[C@@H]4[C@@]5(C)CC[C@H](OC(=O)/C=C/c6ccc(O)c(O)c6)C(C)(C)[C@@H]5CC[C@]43C)[C@@H]12 [betulin-3-caffeate, (3β)-3-Caffeyloxylup-20(29)-en-28-ol]	1.2	even more profoundly inhibited cell growth	210-360 nm	2280	1795	2575	2865	inhibition of P19 stem cell growth in dose response studies (in words) (P19 stem cells; 2.5 to 20 μg/ml, 48 h): more effectively inhibits P19 stem cell growth; potency in inhibiting growth of P19 cells relative to betulinic acid (P19 stem cells; concentrations of 5-10 μg/ml, 48 h): 4 to 5 fold; inhibition of P19 cell growth (in words) (P19 stem cells; listed as betulin 3-caffeate): among the most active compounds in inhibiting cell proliferation; inhibition of M2 melanoma cell growth (in words) (K1735-M2 melanoma cells): significantly inhibited; effectiveness in inhibiting cell growth compared with betulinic acid (in words) (K1735-M2 melanoma cells; K1735-M2 melanoma cells): more effective in inhibiting cell growth than betulinic acid; inhibition of MCF-7 breast cancer cell growth (in words) [1]: do not appear to be as sensitive; effectiveness in inhibiting cell growth compared with betulinic acid (in words) ([1]; MCF-7 cells): more effective in inhibiting cell growth than betulinic acid; increase in the quantity of dead cells present in the cultures (P19 cells): ~200%
C=C(C)[C@@H]1CC[C@]2(COC(=O)/C=C/c3ccc(O)c(O)c3)CC[C@]3(C)[C@H](CC[C@@H]4[C@@]5(C)CC[C@H](O)C(C)(C)[C@@H]5CC[C@]43C)[C@@H]12 [betulin-28-caffeate]	–	–	210-360 nm	1300	875	1190	1380	–
Hydroxyoctadecanoic acid [Sample 10]	82.6	–	–	–	–	–	–	–
Treo-hydroxyoctadecanoic acid [Sample 11]	67.3	–	–	–	–	–	–	–
betulin 3,28,30-tricaffeate	–	–	210-360 nm	1230	882	1174	1353	–
